Assay results taken from patent EP1037653B1, “COMPOSITIONS AND METHODS FOR REGULATING PHAGOCYTOSIS AND ICAM-1 EXPRESSION” (JOHNSON & JOHNSON CONSUMER COMPANIES, INC., priority 1997, dated 1999).

Columns and labels:
[1] = system: human primary keratinocytes; experiment: Fluorescent microsphere ingestion (phagocytosis), fluorescence microscopy; format: cell-based; settings: treated two days; Compound I 1µM, SLIGRL 10µM; vs vehicle control; Figure 1
Method: (§1) In order to study the role of the PAR-2 pathway in phagocytosis, several in vitro model systems were used. One system used contained primary human keratinocytes or a human keratinocyte cell line. In this and a number of following examples, cells were treated with test compounds for different amounts of time (from one hour to three days), and samples were then incubated with fluorescent microspheres for two hours. The beads ingested by the cells were photographed using fluorescence microscopy.
(§2) In this example, human primary keratinocytes or the human keratinocyte cell line HaCaT were used as in vitro model systems to study the effect of PAR-2 regulators on keratinocyte phagocytosis. The human primary keratinocytes used are commercially available from Clonetics (San Diego, CA). Cells were plated on chamber slides, at 2 chambers/slide and 60,000 cells/chamber. […]

[2] = system: human keratinocyte cell line HaCaT; experiment: as above; format: cell-based; settings: Figure 2, repeated at least three times
Method: as §1, §2

[3] = system: macrophage cell line IC-21; experiment: Fluorescent microsphere ingestion (phagocytosis); format: cell-based; settings: IC-21 macrophages
Method: (§3) In this example, human primary keratinocytes or the human keratinocyte cell line HaCaT were used as in vitro model systems to study the effect of PAR-2 regulators on keratinocyte phagocytosis. The human primary keratinocytes used are commercially available from Clonetics (San Diego, CA). Cells were plated on chamber slides, at 2 chambers/slide and 60,000 cells/chamber. Cells were treated once daily, for two or three days, with Compound I (1µM), SLIGRL (10µM), or vehicle (Phosphate-buffered saline, ("PBS") from Gibco-BRL (Gaithersburg, MD). After two or three days of exposure to the test compounds, cells were exposed to Nile-red or FITC fluorescent microspheres, 1 µm in diameter, 50 microspheres/cell, for two hours at 37°C. Microspheres were from Molecular Probes (Eugene, OR), and were processed according to manufacturer's instructions. Following that treatment, cells were incubated with 15% Fetal Bovine Serum ("FBS", from Gibco-BRL), for 15 minutes at 37°C and rinsed with PBS. At that time, chambers were separated from the slides, and the slides were covered with glycerol and coverslips. Fluorescent microscopy was performed using a Zeiss Axiovert 35 or a Nikon Optiphot-2 microscope.
The experiment described in Example 1 was repeated using the macrophage cell line IC-21 (obtained from the ATCC), which shares phagocytic characteristics with peritoneal macrophages. […]

[4] = system: macrophage cell line IC-21; experiment: Vybrant Phagocytosis Assay Kit, ingestion of fluorescein-labeled E. Coli K-12 particles; format: cell-based; settings: treated overnight; 100nM Compound I, 5µM SLIGRL, 0.1 mg/ml STI; untreated control = 100; one of three experiments
Method: To better quantify the level of phagocytosis, the "vybrant™ Phagocytosis Assay Kit" of Molecular Probes (Eugene, Oregon) was used, following manufacturer's instructions, with modification of cell culture conditions for the IC-21 cell line. This kit uses Fluorescein-labeled E. Coli K-12 particles, and is designed for quantifying the effects of drugs or other environmental factors on phagocytic functions. Macrophages were treated overnight with 100nM of Compound I, 5µM of SLIGRL, or 0.1 mg/ml of STI, all dissolved in PBS. The ability of the treated macrophages to ingest the fluorescent E. Coli, as measured by this kit, is documented in Table 1. This experiment was repeated three times.
In order to verify the quantitative nature of the macrophage-phagocytosis assay, a dose-response experiment was performed. Macrophages were treated with 0, 0.01, 0.1 and 1 mg/ml of STI, and the experiment was performed as described in Example 3. […] Each experiment was repeated three times.

Human keratinocytes [5] = experiment: Keratinocyte microsphere phagocytosis dose-response, image analysis of fluorescent beads; format: cell-based; settings: two days; SLIGRL 0, 5 and 10 µM; Compound I 1pM to 1µM; STI 0.01 to 1 mg/ml
Method: as §3, with “microscope. […]” for “microscope.”
Image analysis of the fluorescent beads inside the keratinocytes was used as an alternative way to quantify the phagocytic effect in this system. […]

Human keratinocytes [6] = experiment: Timing of effect on keratinocyte microsphere phagocytosis; format: cell-based; design: key: +: Plus signs indicate an effect on phagocytosis; -: minus signs indicate no effect on phagocytosis; -/+: plus/minus signs indicate a marginal effect on phagocytosis; settings: decrease for Compound I, increase for SLIGRL
Method: as §3
Human keratinocytes were treated with Compound I or SLIGRL for periods of time ranging from one hour to two days. At the end of the treatment period, the cells were treated with microspheres as described in Example 1. […] Plus signs indicate an effect on phagocytosis, minus signs indicate no effect on phagocytosis, and plus/minus signs indicate a marginal effect on phagocytosis. The effects measured were a decrease for Compound I and an increase for SLIGRL. […] This implies that the PAR-2 signaling results in new protein synthesis, a reduction in protein synthesis when a turnover time is required to eliminate the existing relevant protein(s), or a rearrangement of proteins (as occurs in the reorganization of cytoskeletal components).

Keratinocytes [7] = experiment: Melanin uptake by keratinocytes, Fontana-Mason staining; format: cell-based; settings: treated two days; melanin powder two hours; Figure 5A; same results with isolated melanosomes (Figure 5B)
Method: This example tests the ability of keratinocytes to acquire melanin or melanosomes in vitro, and thus function as a simplified system for melanosome uptake in the skin. Keratinocytes were plated in glass chamber-slides as described earlier, and were treated for two days with SLIGRL, Compound I or STI. At that time, melanin powder (from Sigma, St. Louis, MO) was mixed in sterile PBS at 10 µg/ml, and was added to the culture media (1:10 dilution) for two hours. Cells were then washed with PBS and stained with Fontana-Mason ("F&M") staining. F&M stains silver nitrate-reducing molecules, thereby permitting the identification of melanins inside the keratinocytes. […] This system, therefore, can mimic melanosome transfer and melanin distribution in vivo, as skin keratinocytes use melanin as an UV-protective cap over their nuclei. […] The same results were also observed using melanosomes isolated as described in S. Orlow, et al., J.I.D. 100:55-64 (1993) (Figure 5B).

[8] = system: Primary melanocyte cultures plated under epidermal equivalents (EpiDerm); experiment: Melanosome transfer (pigmentation) in equivalent-monolayer co-culture without keratinocyte-melanocyte contact; format: cell-based; settings: no keratinocyte/melanocyte contact
Method: (§4) Since PAR-2 is expressed in keratinocytes, but not in melanocytes, the possible requirement of keratinocyte-melanocyte contact was tested for the effect of Compound I and SLIGRL on melanosome phagocytosis by the keratinocytes. Primary melanocyte cultures (commercially available from Clonetics, San Diego) were plated under epidermal equivalents (EpiDerm, of MatTek, Ashland, MA) to create an equivalent-monolayer co-culture with no contact between keratinocytes and melanocytes. These co-cultures were compared to MelanoDerm equivalents (of MatTek), where melanocytes are present in the basal layer of the equivalent. Cultures were treated with Compound I, with the […] agonist SLIGRL. As set forth in Table 3, keratinocytes are indicated by "K", melanocytes are indicated by "M", and lack of keratinocyte-melanocyte contact is indicated as "no K-M cont". […] The same result was also observed with monolayer keratinocyte/melanocyte co-cultures having keratinocyte/melanocyte contact.

MelanoDerm equivalents = experiment: Melanosome transfer (pigmentation) in melanocyte-containing equivalents; format: cell-based; settings: same result in monolayer co-cultures with keratinocyte/melanocyte contact
Method: as §4

ICAM-1 [9] = experiment: ICAM-1 immunofluorescent staining of keratinocytes; format: cell-based, human; settings: vs untreated keratinocytes; Figure 6A
Method: Intercellular adhesion molecule-1 (ICAM-1) is an inducible cell-surface glycoprotein that is implicated in cell-cell adhesion, cell membrane raffling and phagocytosis. Therefore, the effect of PAR-2 modulation on ICAM-1 was tested. Keratinocytes were grown in chamber slides and treated with SLIGRL, Compound I and STI as described, followed by immunofluorescent staining for ICAM-1 using standard procedures. Normal donkey serum, (used at 1:5 dilution), was obtained from Jackson Immunoresearch Laboratory (Westgrove, PA). A polyclonal goat antihuman ICAM-1 antibody, (used at 1:200 dilution), was obtained from R&D Systems (Minneapolis, MN), and FITC-conjugated donkey anti-goat antibody was obtained from Jackson Immunoresearch Laboratory. […] In untreated keratinocytes, ICAM-1 was localized mainly to the plasma membrane, with some staining at the nuclear membrane.

ICAM-1 [10] = experiment: ICAM-1 immuno-precipitation and Western blotting in keratinocytes; format: cell-based; settings: treated keratinocytes; Figure 6B
Method: Immuno-precipitation and Western blotting experiments were performed, according to known methods, to assess the level of ICAM-1 protein in treated keratinocytes.

Human PMN cells = experiment: Boyden chamber chemotactic cell migration towards FMLP; format: cell-based; settings: with FMLP; cells counted at 115 microns; pretreated with 5 or 0.5 mg/ml STI, 1 or 0.1 µM Compound I; FMLP alone 41
Method: Since ICAM-1 is involved in cell migration, cell migration towards a chemotactic peptide was studied in cells treated with Compound I and STI. Human PMN cells were placed in one side of a Boyden chamber, using standard techniques, and a chemotactic peptide (FMLP) was placed in the other chamber. Cells were allowed to migrate into the second chamber, and the number of migrating cells per field and distance of migration were calculated. The experiment was repeated with PMN cells pretreated with one of the following: 5 or 0.5 mg/ml STI, 1 or 0.1 µM Compound I, a buffer vehicle, and with and without chemotactic peptide. The number of cells per field that migrated the same distance as the untreated control was measured. Without the peptide and with no treatment, an average of 19 cells/field were migrating a distance of 80 microns. […] In other words, no cells (or less than 5/field) were identified at 115 microns. […] The ability to inhibit PMN migration is an important constituent of anti-inflammatory compounds.

Keratinocytes [11] = experiment: Scanning electron microscopy of cell podia; format: cell-based; settings: treated two days; vs vehicle-treated controls; Figure 8
Method: Both phagocytosis and cell migration involve changes in cell shape. Therefore, the effect of the PAR-2 pathway reagents on cell podia were studied using scanning electron microscopy. Keratinocytes were treated with Compound I (identified as "SH00230"), SLIGRL and a buffer vehicle for two days, and then processed for SEM using standard techniques. […] In other words, the cells' "fingers" are shorter and malformed, so they cannot grasp objects as well as can the control cells. […] In other words, these cells have a greater probability for productive interaction with particles. Comparing these SEM pictures in Figure 8, it is clear that SLIGRL-treated cells have a greater ability to interact with particles, while Compound 1-treated cells are less suited for such a task.

Keratinocytes [12] = experiment: F-actin staining, cytoskeletal organization; format: cell-based; settings: Compound I 10 nM, STI 0.1 mg/ml, SLIGRL 5 µM; Figure 9
Method: Therefore, the organization of F-actin filaments following PAR-2 modulation was tested. Keratinocytes were treated with Compound I (10 nM), STI (0.1 mg/ml), or with SLIGRL (5 µM) as described in Example 1, and stained for F-actin using standard techniques.

For “(S)-N-Methyl-D-phenylalanyl-N-[4-[(aminoiminomethyl)amino]-1-(2-benzothiazolylcarbonyl)butyl]-L-prolinamide [Compound I]”, the “quantity of ingested microspheres” value [1] was “dramatic reduction in the quantity of ingested microspheres”, the microsphere ingestion [2] was “reduce microsphere ingestion” and the “number of microspheres ingested” value [3] was “reduced”. The “% effect (ingestion)” value [4] was 89.9 +/- 13.6%, the “phagocytosis with increasing concentrations” value (Human keratinocytes [5]) was “dose-dependent decrease in phagocytosis” and the effect on phagocytosis (Human keratinocytes [6]; Time of Treatment 1 hour) was “-”. For the same substance, the effect on phagocytosis (Human keratinocytes [6]; Time of Treatment 2 hours) was “-”, the effect on phagocytosis (Human keratinocytes [6]; Time of Treatment 4 hours) was “-” and the effect on phagocytosis (Human keratinocytes [6]; Time of Treatment 6 hours) was “-”. The effect on phagocytosis (Human keratinocytes [6]; Time of Treatment 8 hours) was “-/+”, the effect on phagocytosis (Human keratinocytes [6]; Time of Treatment 16 hours) was “+” and the effect on phagocytosis (Human keratinocytes [6]; Time of Treatment 24 hours) was “+”. The effect on phagocytosis (Human keratinocytes [6]; Time of Treatment 48 hours) was “+”, the “uptake of melanin by keratinocytes” value (Keratinocytes [7]) was “dramatically reduce the uptake of melanin” and the “effect on melanosome transfer, measured as the level of pigmentation” value [8] was “no effect on melanosome transfer”. For the same substance, the “pigmentation by affecting melanosome transfer” value (MelanoDerm equivalents) was “reduced”, the “intracellular localization of ICAM-1” value (ICAM-1 [9]) was “less staining was observed at the cytoplasmic membrane, and more at the nuclear membrane” and the “level of ICAM-1 protein” value (ICAM-1 [10]) was “decreased the level of ICAM-1 expression”. For the same substance, the Cells/Field (Human PMN cells) was under 5, the “shape of cell podia” value (Keratinocytes [11]) was “dramatically shorter podia” and the actin filaments organization (Keratinocytes [12]) was “reduced the ordered organization of the cell cortex”.
